From patent publication US20030181510A1, “Inhibition of muscle regeneration following myectomy” (priority 2002, published 2003)

Tests used:
[1] = system: satellite cells derived from mouse gastrocnemius and soleus muscles; assay: Satellite cell proliferation in secondary satellite cell cultures (cell count per ocular grid); format: cell-based; details: genistein added to culture medium as in Example 1, on day 1 or day 2; control 0.05% DMSO; P<0.0001 one day after, P<0.00001 at days 2-5 after addition; FIG. 2
Description: Method: To analyze satellite cell proliferation secondary satellite cell cultures derived from mouse gastrocnemius and soleus muscles prepared as in Example 1 were fed fresh medium every day. This generally accepted procedure prolongs proliferation and inhibits differentiation and fusion. Two experimental groups were formed by adding genistein to the culture medium, as in Example 1. […] Living cultures were placed on the stage of a phase-contrast microscope and the number of cells contained within an ocular grid was counted at 100× to 200× total magnification. This cell-counting procedure was performed daily through the sixth day of culture.

[2] = system: mouse primary satellite cells; assay: Fusion of mouse primary satellite cells to myofibers in culture (fusion index); format: cell-based; details: genistein in culture medium, added on first, second or third day of culture; control 0.05% DMSO; day 3 P<0.002, day 5 P<0.0001 (Student's t-test); FIG. 1
Protocol: Method: Thigh muscle tissue was removed from post-natal day 20-30 mouse pups and the tissue reduced to single cells by a method based largely on a protocol by DiMario and Strohman (DiMario, J. and Strohman, R. C.; 1988). Gastrocnemius and soleus muscles were dissected free of surrounding tissue and finely minced with scissors. The minced tissue was mixed with 0.10% crude collagenase and incubated at 37° C. for 30 minutes with occasional trituration through the bore of a 5 ml glass pipette to break up tissue pieces. The collagenase-tissue slurry was centrifuged briefly to pellet the tissue pieces, muscle fibers, and cells. […] The number of cells was determined and aliquots were appropriately diluted with culture medium so that a known number of satellite cells (80,000) could be added to additional 35 mm collagen-coated dishes for analysis of cell proliferation and fusion. […]
Fusion of satellite cells to form muscle fibers is generally accomplished by removing the source of growth factors in the culture medium. […] As fusion of satellite cells to form myofibers began, the number of nuclei contained within mononucleated cells, primarily satellite cells, and those within myofibers were counted differentially at a magnification of 200×. […]

[3] = populations of Southeast Asians consuming 70 mg/day of genistein; cited from earlier work

O=c1c(-c2ccc(O)cc2)coc2cc(O)cc(O)c12 [genistein, 5,7-dihydroxy-3-(4-hydroxyphenyl)-4H-1-benzopyran-4-one]
division of satellite cells (number of cells per reticle-grid vs control cultures) [1]: eliminated the division of satellite cells | fusion of satellite cells (fusion index vs control cultures) [2]: inhibited the fusion of satellite cells | ill effects on dietary consumption [3]: without obvious ill effects
